The subject of data set [1] is plasma proteins. Nature of the data set: Human plasma rapid equilibrium dialysis. It is filed as in vitro ADME. The note with it: pooled human plasma, 4 h of shaking, 10 µM, monitored drug alone. Background: In equilibrium dialysis only unbound substance equilibrates across the membrane.
In data set [2] the test system is cryopreserved pooled human primary hepatocytes.
Data set [3] concerns plasma proteins. The note with it: cited from earlier work.
The target of the next data set is T1, CYP1A2 (Homo sapiens, UniProt P05177).
T1 sequence (P05177 1-516): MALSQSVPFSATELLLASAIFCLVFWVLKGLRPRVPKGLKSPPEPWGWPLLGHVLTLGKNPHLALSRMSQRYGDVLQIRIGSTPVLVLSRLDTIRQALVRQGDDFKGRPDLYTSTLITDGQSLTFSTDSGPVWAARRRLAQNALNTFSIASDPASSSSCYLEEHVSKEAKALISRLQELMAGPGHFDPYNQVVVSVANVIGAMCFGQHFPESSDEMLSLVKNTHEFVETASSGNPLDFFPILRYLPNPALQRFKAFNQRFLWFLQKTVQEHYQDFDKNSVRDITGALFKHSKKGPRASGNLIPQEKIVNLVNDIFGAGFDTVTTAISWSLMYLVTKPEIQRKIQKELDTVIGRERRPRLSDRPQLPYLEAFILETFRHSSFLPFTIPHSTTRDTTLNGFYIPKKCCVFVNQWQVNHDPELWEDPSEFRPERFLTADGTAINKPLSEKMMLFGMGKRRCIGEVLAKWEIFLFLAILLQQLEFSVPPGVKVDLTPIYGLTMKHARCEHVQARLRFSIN
Nature of the data set: CYP screening of gefitinib and erlotinib with human pooled supersomes. It is filed as in vitro ADME. Particulars: 10 µM, at 60 min.

The target of another data set is CYP2D6 (Homo sapiens, UniProt P10635). The description is as above. The note with it: 10 µM. It is filed as in vitro ADME.
CYP2D6, sequence (P10635 whole entry): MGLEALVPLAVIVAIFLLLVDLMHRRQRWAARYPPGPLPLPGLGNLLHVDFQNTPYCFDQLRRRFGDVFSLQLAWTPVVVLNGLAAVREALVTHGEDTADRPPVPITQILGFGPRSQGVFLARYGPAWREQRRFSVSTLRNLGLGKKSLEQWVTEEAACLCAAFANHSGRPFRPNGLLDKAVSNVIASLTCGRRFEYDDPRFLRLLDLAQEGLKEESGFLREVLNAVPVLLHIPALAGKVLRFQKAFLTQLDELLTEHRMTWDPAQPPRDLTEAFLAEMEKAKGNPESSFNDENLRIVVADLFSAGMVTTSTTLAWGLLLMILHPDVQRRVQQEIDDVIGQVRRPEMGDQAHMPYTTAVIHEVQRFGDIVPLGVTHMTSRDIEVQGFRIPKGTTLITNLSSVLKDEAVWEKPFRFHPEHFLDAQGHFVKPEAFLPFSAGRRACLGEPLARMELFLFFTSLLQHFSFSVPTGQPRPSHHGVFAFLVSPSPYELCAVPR
The next data set deals with CYP3A4 (Homo sapiens, UniProt P08684). Particulars: supersomes, 10 µM, at 60 min.
CYP3A4, sequence (P08684 whole entry): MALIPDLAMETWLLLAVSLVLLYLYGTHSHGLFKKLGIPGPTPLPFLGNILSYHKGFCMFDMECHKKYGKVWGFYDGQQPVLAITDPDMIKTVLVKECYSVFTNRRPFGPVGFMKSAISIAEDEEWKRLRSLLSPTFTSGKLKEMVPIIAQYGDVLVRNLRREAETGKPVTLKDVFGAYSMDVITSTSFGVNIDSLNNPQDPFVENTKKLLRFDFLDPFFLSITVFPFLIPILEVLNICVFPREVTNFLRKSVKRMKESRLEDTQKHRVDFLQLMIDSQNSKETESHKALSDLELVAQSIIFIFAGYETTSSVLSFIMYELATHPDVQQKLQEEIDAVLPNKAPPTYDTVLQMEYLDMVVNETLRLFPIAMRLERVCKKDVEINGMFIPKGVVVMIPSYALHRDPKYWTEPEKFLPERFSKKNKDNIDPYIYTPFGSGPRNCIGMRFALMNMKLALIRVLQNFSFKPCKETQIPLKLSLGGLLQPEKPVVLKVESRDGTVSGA
Setting [4] is: 4 h, 10 µM each, monitored drug + Erl.
[5] abbreviates: 4 h, 10 µM each, monitored drug + Gef.
Where [6] appears, read: 4 h incubation, 10 µM, monitored drug alone.
The mark [7] stands for this setting: 4 h, 10 µM each, monitored drug + Flx.
[8] abbreviates: 4 h, 10 µM each, monitored drug + Flx + Los.
Setting [9] is: 4 h, 10 µM each, monitored drug + Los.

Where two headings read alike, the source gives them in different places. A value given as a limit tells only on which side of the number the result lay.

The values below come from paper PMC8320603 (Current Research in Toxicology, 2021).

For `CNCCC(Oc1ccc(C(F)(F)F)cc1)c1ccccc1` (stereo not drawn) [Fluoxetine], the “RED Protein Binding, Binding (%)” value in the data set on plasma proteins [1] is listed as 95 ± 1%. The “Parent remain (%)” value in data set [2] (setting [4]) came to 102 ± 1%; in data set [2] (4 h, 10 µM each, monitored drug + Erl + Los) it was 121 ± 3%; in data set [2] (setting [5]) it was 87 ± 10%; in data set [2] (4 h, 10 µM each, monitored drug + Gef + Los), 122 ± 16%; in data set [2] (setting [6]) it was 75 ± 9%. Also, the “plasma protein binding, % bound” value with plasma proteins [3] (literature value ref Van Harten 1993) is given as 95%.

On to `C#Cc1cccc(Nc2ncnc3cc(OCCOC)c(OCCOC)cc23)c1` [Erlotinib], for which the “metabolism by CYP1A2” value on CYP1A2 was “significantly metabolized”. For the same compound, on CYP2D6 (supersomes, at 60 min), the “metabolism by CYP2D6” value is “significantly metabolized”. Besides, in the data set on plasma proteins [1], the “RED Protein Binding, Binding (%)” value came to 96 ± 0%. In addition, the “metabolism by CYP3A4” value at CYP3A4 was “significantly metabolized”. In addition, the “Parent remain (%)” value in data set [2] (setting [7]) is recorded as 75 ± 3%; in data set [2] (setting [8]), 86 ± 9%; in data set [2] (setting [9]), 63 ± 2%; in data set [2] (setting [6]) it was 62 ± 13%. Besides, the “plasma protein binding, % bound” value in the data set on plasma proteins [3] (literature value ref Christiansen et al., 2009) was 95%.

For the compound `COc1cc2ncnc(Nc3ccc(F)c(Cl)c3)c2cc1OCCCN1CCOCC1` [Gefitinib], on CYP2D6 (CYP2D6 supersomes), the drug remaining result is “less than 80%”. For the same compound, the “RED Protein Binding, Binding (%)” value with plasma proteins [1] is more than 95%. In addition, the “Parent remain (%)” value in data set [2] (setting [7]) amounted to 72 ± 10%; in data set [2] (setting [8]), 96 ± 4%; in data set [2] (setting [9]), 58 ± 3%; in data set [2] (setting [6]), 65 ± 2%. In addition, the “plasma protein binding, % bound” value in the data set with plasma proteins [3] (literature value ref Li et al., 2006) is ~ 97%.

For `CCCCc1nc(Cl)c(CO)n1Cc1ccc(-c2ccccc2-c2nn[nH]n2)cc1` [Losartan], in the data set with plasma proteins [1], the “RED Protein Binding, Binding (%)” value is given as more than 95%. Also, the “Parent remain (%)” value was 89 ± 10% in data set [2] (setting [4]); 99 ± 4% in data set [2] (4 h, 10 µM each, monitored drug + Erl + Flx); 89 ± 4% in data set [2] (setting [5]); 112 ± 13% in data set [2] (4 h, 10 µM each, monitored drug + Gef + Flx); 77 ± 6% in data set [2] (setting [6]). In addition, the “plasma protein binding, % bound” value with plasma proteins [3] (literature value ref Sica et al., 2005) is reported as “greater than 98%”.
